Laboratory results: PubChem BioAssay (NCI)
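Step 1: Grow cells in 96-well plates. Step 2: Expose to compound for 48 hours at 5 concentrations. Step 3: Interpolate endpoints linearly; if unreached, use highest concentration. Here, GI50 denotes the concentration required for 50% inhibition of growth. TGI is the concentration that stops growth completely.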

Legend:
Assay in all cases: inhibition of tumour cell growth, NCI panel, 48 h
SF-268 CNS = test system: SF-268 CNS
OVCAR-3 ovarian = test system: OVCAR-3 ovarian
RXF 393 renal = test system: RXF 393 renal
HCC-2998 colon = test system: HCC-2998 colon
A549 NSCLC = test system: A549 NSCLC
NCI-H23 lung = test system: NCI-H23 lung
SR leukemia = test system: SR leukemia
A498 renal = test system: A498 renal
NCI/ADR-RES ovarian = test system: NCI/ADR-RES ovarian
SNB-19 CNS = test system: SNB-19 CNS
SW-620 colon = test system: SW-620 colon
786-0 renal = test system: 786-0 renal
CCRF-CEM leukemia = test system: CCRF-CEM leukemia
SK-OV-3 ovarian = test system: SK-OV-3 ovarian
U251 CNS = test system: U251 CNS
SF-539 CNS = test system: SF-539 CNS
EKVX NSCLC = test system: EKVX NSCLC
PC-3 prostate = test system: PC-3 prostate
NCI-H226 lung = test system: NCI-H226 lung
CAKI-1 renal = test system: CAKI-1 renal
OVCAR-5 ovarian = test system: OVCAR-5 ovarian
HS 578T breast = test system: HS 578T breast
RPMI-8226 leukemia = test system: RPMI-8226 leukemia
LOX IMVI melanoma = test system: LOX IMVI melanoma
SK-MEL-28 melanoma = test system: SK-MEL-28 melanoma
K-562 leukemia = test system: K-562 leukemia
OVCAR-4 ovarian = test system: OVCAR-4 ovarian
M14 melanoma = test system: M14 melanoma
UACC-62 melanoma = test system: UACC-62 melanoma
NCI-H460 lung = test system: NCI-H460 lung
MOLT-4 leukemia = test system: MOLT-4 leukemia
IGROV1 ovarian = test system: IGROV1 ovarian
HT29 colon = test system: HT29 colon
KM12 colon = test system: KM12 colon
SN12C renal = test system: SN12C renal
OVCAR-8 ovarian = test system: OVCAR-8 ovarian
SNB-75 CNS = test system: SNB-75 CNS
HCT-15 colon = test system: HCT-15 colon
ACHN renal = test system: ACHN renal
HOP-92 NSCLC = test system: HOP-92 NSCLC
MCF7 breast = test system: MCF7 breast
HL-60(TB) leukemia = test system: HL-60(TB) leukemia
TK-10 renal = test system: TK-10 renal
UO-31 renal = test system: UO-31 renal
SK-MEL-5 melanoma = test system: SK-MEL-5 melanoma
BT-549 breast = test system: BT-549 breast
MALME-3M melanoma = test system: MALME-3M melanoma
NCI-H522 lung = test system: NCI-H522 lung
MDA-MB-231 breast = test system: MDA-MB-231 breast
HCT-116 colon = test system: HCT-116 colon
T-47D breast = test system: T-47D breast
MDA-MB-435 = test system: MDA-MB-435
DU-145 prostate = test system: DU-145 prostate
COLO 205 colon = test system: COLO 205 colon
SK-MEL-2 melanoma = test system: SK-MEL-2 melanoma
SF-295 CNS = test system: SF-295 CNS
HOP-62 NSCLC = test system: HOP-62 NSCLC

## Cc1cc(Br)c(N2C3=C(CC4=C2CCCC4=O)C(=O)CCC3)c(Br)c1
SF-268 CNS
  TGI: > 100 µM
OVCAR-3 ovarian
  TGI: > 100 µM
RXF 393 renal
  TGI: 84.7 µM
HCC-2998 colon
  TGI: > 100 µM
A549 NSCLC
  TGI: > 100 µM
NCI-H23 lung
  TGI: > 100 µM
SR leukemia
  TGI: > 100 µM
A498 renal
  TGI: > 100 µM
NCI/ADR-RES ovarian
  TGI: > 100 µM
SNB-19 CNS
  TGI: > 100 µM
SW-620 colon
  TGI: > 100 µM
786-0 renal
  TGI: > 100 µM
CCRF-CEM leukemia
  TGI: > 100 µM
SK-OV-3 ovarian
  TGI: > 100 µM
U251 CNS
  TGI: > 100 µM
SF-539 CNS
  TGI: > 100 µM
EKVX NSCLC
  TGI: > 100 µM
PC-3 prostate
  TGI: > 100 µM
NCI-H226 lung
  TGI: > 100 µM
CAKI-1 renal
  TGI: > 100 µM
OVCAR-5 ovarian
  TGI: > 100 µM
HS 578T breast
  TGI: > 100 µM
RPMI-8226 leukemia
  TGI: > 100 µM
LOX IMVI melanoma
  TGI: > 100 µM
SK-MEL-28 melanoma
  TGI: > 100 µM
K-562 leukemia
  TGI: > 100 µM
OVCAR-4 ovarian
  TGI: > 100 µM
M14 melanoma
  TGI: > 100 µM
UACC-62 melanoma
  TGI: > 100 µM
NCI-H460 lung
  TGI: > 100 µM
MOLT-4 leukemia
  TGI: > 100 µM
IGROV1 ovarian
  TGI: > 100 µM
HT29 colon
  TGI: > 100 µM
KM12 colon
  TGI: > 100 µM
SN12C renal
  TGI: > 100 µM
OVCAR-8 ovarian
  TGI: > 100 µM
SNB-75 CNS
  TGI: > 100 µM
HCT-15 colon
  TGI: > 100 µM
ACHN renal
  TGI: > 100 µM
HOP-92 NSCLC
  TGI: 94.3 µM
MCF7 breast
  TGI: > 100 µM
HL-60(TB) leukemia
  TGI: > 100 µM
TK-10 renal
  TGI: > 100 µM
UO-31 renal
  TGI: > 100 µM
SK-MEL-5 melanoma
  TGI: > 100 µM
BT-549 breast
  TGI: > 100 µM

## C[C@]12CC[C@H](O)CC1=CC[C@@H]1[C@@H]2CC[C@]2(C)C(=O)/C(=C/c3cccc(OCCCn4ccnc4)c3)C[C@@H]12
SF-268 CNS
  GI50: 21.4 µM
  TGI: 55.6 µM
OVCAR-3 ovarian
  GI50: 28.8 µM
  TGI: > 100 µM
HCC-2998 colon
  GI50: 34.1 µM
  TGI: > 100 µM
A549 NSCLC
  GI50: 13.8 µM
  TGI: 28.8 µM
NCI-H23 lung
  GI50: 15.5 µM
  TGI: 32.3 µM
SR leukemia
  GI50: 13.9 µM
  TGI: 40 µM
A498 renal
  GI50: 20.5 µM
  TGI: 39.1 µM
MALME-3M melanoma
  GI50: 23.9 µM
  TGI: 59.1 µM
SNB-19 CNS
  GI50: 27 µM
  TGI: 77.3 µM
SW-620 colon
  GI50: 19.7 µM
  TGI: 40.9 µM
NCI-H522 lung
  GI50: 16.6 µM
  TGI: 34.2 µM
786-0 renal
  GI50: 23.2 µM
  TGI: 47.2 µM
CCRF-CEM leukemia
  GI50: 16.4 µM
  TGI: > 100 µM
SK-OV-3 ovarian
  GI50: 17.4 µM
  TGI: 62.7 µM
U251 CNS
  GI50: 24.8 µM
  TGI: 77.3 µM
SF-539 CNS
  GI50: 18.7 µM
  TGI: 35.5 µM
MDA-MB-231 breast
  GI50: 20.6 µM
  TGI: 40.4 µM
EKVX NSCLC
  GI50: 21.1 µM
  TGI: 46.3 µM
PC-3 prostate
  GI50: 15.6 µM
  TGI: 39.8 µM
NCI-H226 lung
  GI50: 21.4 µM
  TGI: 50.2 µM
CAKI-1 renal
  GI50: 38.4 µM
  TGI: > 100 µM
OVCAR-5 ovarian
  GI50: 18.1 µM
  TGI: 34.8 µM
HS 578T breast
  GI50: 21.5 µM
  TGI: 54.2 µM
RPMI-8226 leukemia
  GI50: 10.1 µM
  TGI: 31.6 µM
LOX IMVI melanoma
  GI50: 23.1 µM
  TGI: 56.2 µM
HCT-116 colon
  GI50: 15 µM
  TGI: 30.2 µM
SK-MEL-28 melanoma
  GI50: 22.2 µM
  TGI: 51.5 µM
K-562 leukemia
  GI50: 16 µM
  TGI: 58.1 µM
OVCAR-4 ovarian
  GI50: 19.6 µM
  TGI: 64.6 µM
M14 melanoma
  GI50: 18.5 µM
  TGI: 33.2 µM
UACC-62 melanoma
  GI50: 13.1 µM
  TGI: 30 µM
T-47D breast
  GI50: 12.4 µM
  TGI: 31.3 µM
MDA-MB-435
  GI50: 36.8 µM
  TGI: > 100 µM
NCI-H460 lung
  GI50: 19.6 µM
  TGI: 43.2 µM
DU-145 prostate
  GI50: 19.9 µM
  TGI: 38.7 µM
IGROV1 ovarian
  GI50: 19.4 µM
  TGI: 46.2 µM
COLO 205 colon
  GI50: 20.3 µM
  TGI: 45.8 µM
HT29 colon
  GI50: 7.53 µM
  TGI: 27 µM
KM12 colon
  GI50: 34 µM
  TGI: > 100 µM
SN12C renal
  GI50: 28.7 µM
  TGI: 88.3 µM
OVCAR-8 ovarian
  GI50: 17.7 µM
  TGI: 32.8 µM
SNB-75 CNS
  GI50: 19.7 µM
  TGI: 38.4 µM
HCT-15 colon
  GI50: 16.8 µM
  TGI: 40.4 µM
SK-MEL-2 melanoma
  GI50: 19.9 µM
  TGI: 51 µM
ACHN renal
  GI50: 16.7 µM
  TGI: 38.6 µM
HOP-92 NSCLC
  GI50: 12.6 µM
  TGI: 32.3 µM
MCF7 breast
  GI50: 23.1 µM
  TGI: 54.1 µM
SF-295 CNS
  GI50: 31.7 µM
  TGI: > 100 µM
HL-60(TB) leukemia
  GI50: 13.8 µM
  TGI: 44.7 µM
TK-10 renal
  GI50: 27.9 µM
  TGI: 72 µM
UO-31 renal
  GI50: 16 µM
  TGI: 35.1 µM
SK-MEL-5 melanoma
  GI50: 11.1 µM
  TGI: 24.6 µM
HOP-62 NSCLC
  GI50: 20.4 µM
  TGI: 38.2 µM
